The values below come from US6528521B2, “Treatment of anti-depression drug-induced sexual dysfunction with apomorphine” (Tap Pharmaceutical Products, Inc., priority 2000, dated 2003).

The subject of this experiment is male patients taking selective serotonin reuptake inhibitors. As to the kind of experiment: Crossover home-use trial of sublingual apomorphine in male patients taking SSRIs. The format is in vivo, human. As to conditions: apomorphine versus placebo. The method, then: A crossover study of 1500 patients in a home-use trial of apomorphine on male patients was performed.
In the crossover study, a 2-4 week baseline period was used to evaluate subjects. After this time, during an initial four week treatment period, subjects received either a placebo or apomorphine, without knowing whether or not they had received the active medication. The dosage was either 2, 4, 5 or 6 mg. This initial treatment period was followed by a 24-96 hour washout period, in which no medication was taken. Subsequently, a second four week treatment period, subjects who previously had received apomorphine, were given a placebo, and subjects who previously had received the placebo were given apomorphine. Subject were to attempt coitus once each week after taking a single tablet of apomorphine sublingually. After each attempt, the subject and their partner completed a sexual function questionnaire which was later evaluated and used for final statistical analysis. In the analysis, the data for patients receiving 2, 4, 5 or 6 mg dosages was pooled.

For the compound `CN1CCc2cccc3c2[C@H]1Cc1ccc(O)c(O)c1-3` [apomorphine, (R)-5,6,6a,7-tetrahydro-6-methyl-4H-dibenzo-[de,g]quinoline-10,11-diol], the “patients on SSRI drugs able to have intercourse after taking apomorphine, relative to placebo” value is “twice as many”.
